Test results: publication PMC8258866 (Journal of medicinal chemistry, 2020)

What was measured:
MCF-7:Tam1 tumors = assay: MCF-7:TAM1 xenograft, combination with fulvestrant; format: in vivo, athymic nude mice; settings: 4 weeks
MCF7:CFR 3D spheroids = assay: 3D-spheroid growth assay; format: cell-based; settings: 100 nM; cell viability at day 9
MCF-7:CFR cells [1] = assay: Cell growth assay in fulvestrant-resistant MCF-7:CFR 2D cultures; format: cell-based; settings: MCF-7:CFR growth inhibition
Kinetic solubility = format: physicochemical; settings: 27 tested as HCl salt; for solubility: PBS, pH 7.4, solubility (PBS, pH 7.4)
[2] = test system: MCF-7:WS8, MCF-7:5C, MCF-7:TAM1, T47D, T47D/TDG, MCF-7:CPR, MCF-7:CFR cells; assay: Cell growth assay across ER+ breast cancer cell lines; format: cell-based; settings: read-out: IC50 across all cell lines
[3] = test system: tamoxifen-resistant MCF-7:TAM1 cell-derived xenograft; assay: MCF-7:TAM1 xenograft, monotherapy; format: in vivo
MCF-7:CFR cells [4] = assay: 3 h treatment and washout study in MCF-7:CFR cells; format: cell-based; settings: media replaced after 3 h, viability after 5 days
BET family proteins = assay: BROMOscan bromodomain profiling, BET family; format: binding; settings: across BET family proteins
Mouse pharmacokinetics = format: in vivo, CD1 mice; settings: iv 5 mg/kg, mice, HCl salt

CCNC(=O)C[C@@H]1N=C(c2ccc(Cl)cc2)c2cc(OC)ccc2-n2c(C)nnc21 [Compound 2, reference compound]
tumor growth inhibition versus vehicle control (MCF-7:Tam1 tumors; 50 mg/kg po in combination with fulvestrant sc 1 (mg/mouse)/week): comparable and significant tumor growth inhibition

C[C@]12CC[C@@H]3c4ccc(O)cc4C[C@@H](CCCCCCCCC[S+]([O-])CCCC(F)(F)C(F)(F)F)[C@H]3[C@@H]1CC[C@@H]2O (stereo partly shown) [fulvestrant]
effect on MCF-7:CFR 3D spheroid growth/viability (MCF7:CFR 3D spheroids): Neither 4-hydroxytamoxifen (4OHT) nor fulvestrant inhibited MCF-7:CFR cell growth

COc1nnc2ccc(N3CCC(c4ccc(OCCN5CCN(C)C(=O)[C@H]5C)cc4)CC3)nn12 [Compound 5, (3R)-4-[2-[4-[1-(3-Methoxy-[1,2,4]-triazolo[4,3-b]pyridazin-6-yl)-4-piperidyl]phenoxy]ethyl]-1,3-dimethyl-piperazin-2-one]
effect on MCF-7:CFR 3D spheroid growth/viability (MCF7:CFR 3D spheroids): significantly inhibited growth

CC/C(=C(\c1ccc(O)cc1)c1ccc(OCCN(C)C)cc1)c1ccccc1 [4-hydroxytamoxifen]
effect on MCF-7:CFR 3D spheroid growth/viability (MCF7:CFR 3D spheroids): Neither 4-hydroxytamoxifen (4OHT) nor fulvestrant inhibited MCF-7:CFR cell growth

CCS(=O)(=O)Nc1cc(-c2cn(C)c3c(=O)[nH]ccc23)cc2c1ccn2C(C)(c1ccccn1)c1ccccn1 [Compound 27, N-(1-(1,1-Di(pyridin-2-yl)ethyl)-6-(1-methyl-7-oxo-6,7-dihydro-1H-pyrrolo[2,3-c]pyridin-3-yl)-1H-indol-4-yl)-ethanesulfonamide]
cellular potency over JQ1 (MCF-7:CFR cells [1]): > 100 fold | solubility (PBS, pH 7.4) (Kinetic solubility): 73.43 μM | solubility (Kinetic solubility): 73.4 µM | IC50 [2]: < 10 nM | effect on MCF-7:CFR 3D spheroid growth/viability (MCF7:CFR 3D spheroids): complete loss of spheroid viability | effect on animal body weight ([3]; 50 (mg/kg)/day po, 4 weeks): without any effect on animal body weight | overt signs of toxicity ([3]; once daily administration for 4 weeks): no overt signs of toxicity | efficacy after drug washout (MCF-7:CFR cells [4]): only slightly diminished | Kd (BET family proteins): < 1 nM | tumor growth inhibition versus vehicle control (MCF-7:Tam1 tumors; 30 mg/kg po in combination with fulvestrant sc 1 (mg/mouse)/week): comparable and significant tumor growth inhibition | Cl (Mouse pharmacokinetics): 25.5 (mL/min)/kg

CC/C(=C(\c1ccccc1)c1ccc(OCCN(C)C)cc1)c1ccccc1 [tamoxifen, reference compound]
effect on tumor growth relative to vehicle control ([3]; 1.5 mg/mouse/day po, day 28): no significant effect on tumor growth

Cc1sc2c(c1C)C(c1ccc(Cl)cc1)=N[C@@H](CC(=O)OC(C)(C)C)c1nnc(C)n1-2 [Compound 1, reference compound]
effect on MCF-7:CFR 3D spheroid growth/viability (MCF7:CFR 3D spheroids): significantly inhibited growth | efficacy after drug washout (MCF-7:CFR cells [4]): no significant efficacy at <300 nM

CC(=O)[C@H]1CC[C@H]2[C@@H]3CCC4=CC(=O)CC[C@]4(C)[C@H]3CC[C@]12C [progesterone, reference compound]
solubility (Kinetic solubility): 22.4 µM
